From patent publication US20190046556A1, “Methods and Pharmaceutical Compositions for the Prophylactic Treatment of Peritoneal Carcinomatosis” (INSERM (Institut National de la Sante et de la Recherche …, priority 2016, published 2019)

Tested on: OVCAR
Type: in vivo
Settings: 21 days, nude mice
From the text: For that experiment, a human ovarian cancer cell line, named OVCAR is used, as prior exposed for the CT-26 cells. The only difference is the mice receiving cell injection, because OVACR is a human cancer cell, a nude mice animal is used because of immune deficiency of the animal.

O=C1[O][Pt]2([NH][C@@H]3CCCC[C@H]3[NH]2)[O]C1=O [Oxaliplatin]
Mean PCI (peritoneal cancer index): 3,7
